Measurements as given in patent publication US10618903B2, “Heteroaryl substituted aminopyridine compounds” (BRISTOL-MYERS SQUIBB COMPANY, priority 2015, dated 2020).

Columns and labels:
[1] = molecular target: IRAK4 (Homo sapiens (Human), UniProt Q9NWZ3); test: IRAK4 Inhibition Assay; type: biochemical; details: ATP 500 μM; IRAK4 0.6 nM
In short: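 Readout: electrophoretic (LabChip) separation of fluorescent peptide substrate from phosphorylated product after EDTA quench. Reactions ran 60 min at room temperature with 0.6 nM IRAK4, 1.5 μM peptide and 500 μM ATP; inhibition referenced to no-enzyme (100%) and vehicle (0%) controls.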

[2] = system: IL-6 levels in human whole blood stimulated with a TLR2 agonist; test: IRAK4 Whole Blood Assay (lipoteichoic acid/TLR2-stimulated IL-6); type: cell-based; details: Homo sapiens, lipoteichoic acid 10 μg/mL, IL-6 readout
Method: Human whole blood containing the anti-coagulant ACD-A was plated in 384-well plate (25 μL/well) and incubated with compounds for 60 minutes at 37° C. in a 5% CO2 incubator. The blood was stimulated with a TLR2 agonist, 10 μg/mL final concentration of lipoteichoic acid (Invivogen, San Diego, Calif.) in 25 μL RPMI (Gibco) for 5 hours in a 5% CO2 incubator. At the end of the incubation, plates were centrifuged at 2300 rpm for 5 minutes. Supernatants were harvested and analyzed for IL-6 levels by Flow Cytometry beads assay (BD Biosciences, San Jose, Calif.).

Chain of IRAK4 (Q9NWZ3 whole entry): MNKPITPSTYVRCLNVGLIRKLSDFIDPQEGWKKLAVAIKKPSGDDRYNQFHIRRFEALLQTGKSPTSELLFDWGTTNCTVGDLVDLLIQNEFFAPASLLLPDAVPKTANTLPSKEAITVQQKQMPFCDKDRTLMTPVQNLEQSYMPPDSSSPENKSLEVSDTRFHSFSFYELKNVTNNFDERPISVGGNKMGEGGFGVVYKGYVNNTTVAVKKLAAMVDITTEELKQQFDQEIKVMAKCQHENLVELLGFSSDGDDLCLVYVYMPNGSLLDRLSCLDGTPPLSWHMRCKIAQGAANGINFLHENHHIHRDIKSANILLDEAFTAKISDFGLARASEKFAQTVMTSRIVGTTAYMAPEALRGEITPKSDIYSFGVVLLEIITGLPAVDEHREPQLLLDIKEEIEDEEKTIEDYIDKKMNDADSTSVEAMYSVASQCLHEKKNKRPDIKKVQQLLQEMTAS

SMILES | IC50 [1] [nM] | EC50 [2] [nM]
CC(C)(O)[C@H](F)CNC(=O)c1cnc(-c2cnn3cc(Cl)cnc23)cc1NC12CC(C1)C2 [Example 75, (R)-4-(bicyclo[1.1.1]pentan-1-ylamino)-6-(6-chloropyrazolo[1,5-a]pyrimidin-3-yl)-N-(2-fluoro-3-hydroxy-3-methylbutyl)nicotinamide] | 2 | 1460
CC1(Nc2cc(-c3cnn4cc(Cl)cnc34)ncc2C(=O)NC[C@@H](F)C(C)(C)O)CC1 [Example 80, (R)-6-(6-chloropyrazolo[1,5-a]pyrimidin-3-yl)-N-(2-fluoro-3-hydroxy-3-methylbutyl)-4-((1-methylcyclopropyl)amino)nicotinamide] | 6 | 840
C[C@H](CO)Nc1cc(-c2cnn3cc(C#N)cnc23)ncc1C(=O)NC[C@@H](F)C(C)(C)O [Example 98, 6-(6-cyanopyrazolo[1,5-a]pyrimidin-3-yl)-N—((R)-2-fluoro-3-hydroxy-3-methylbutyl)-4-(((R)-1-hydroxypropan-2-yl)amino)nicotinamide] | 6 | 860
CC(C)(O)[C@H](F)CNC(=O)c1cnc(-c2cnn3cc(C#N)cnc23)cc1NC1COC1 [Example 99, (R)-6-(6-cyanopyrazolo[1,5-a]pyrimidin-3-yl)-N-(2-fluoro-3-hydroxy-3-methylbutyl)-4-(oxetan-3-ylamino) nicotinamide] | 4 | 600
CC(C)(O)[C@H](F)CNC(=O)c1cnc(-c2cnn3cc(C#N)cnc23)cc1N[C@@H](CO)Cc1ccccc1 [Example 101, 6-(6-cyanopyrazolo[1,5-a]pyrimidin-3-yl)-N—((R)-2-fluoro-3-hydroxy-3-methylbutyl)-4-(((R)-1-hydroxy-3-phenylpropan-2-yl)amino)nicotinamide] | 7 | 1640
CC(C)(O)[C@H](F)CNC(=O)c1cnc(-c2cnn3cc(C#N)cnc23)cc1N[C@@H]1CCN(c2ncc(F)cn2)C1 [Example 109, 6-(6-cyanopyrazolo[1,5-a]pyrimidin-3-yl)-N—((R)-2-fluoro-3-hydroxy-3-methylbutyl)-4-(((R)-1-(5-fluoropyrimidin-2-yl)pyrrolidin-3-yl)amino)nicotinamide] | 5 | 440
CC(C)(O)[C@H](F)CNC(=O)c1cnc(-c2cnn3cc(C#N)cnc23)cc1Nc1cccc(C(N)=O)c1 [Example 111, (R)-4-((3-carbamoylphenyl)amino)-6-(6-cyanopyrazolo[1,5-a]pyrimidin-3-yl)-N-(2-fluoro-3-hydroxy-3-methylbutyl)nicotinamide] | 3 | 900
CC(C)(CO)Nc1cc(-c2cnn3cc(C#N)cnc23)ncc1C(=O)NC[C@@H](F)C(C)(C)O [Example 114, (R)-6-(6-cyanopyrazolo[1,5-a]pyrimidin-3-yl)-N-(2-fluoro-3-hydroxy-3-methylbutyl)-4-((1-hydroxy-2-methylpropan-2-yl)amino)nicotinamide] | 3 | 480
CC(C)(O)[C@H](F)CNC(=O)c1cnc(-c2cnn3cc(C#N)cnc23)cc1N[C@@H]1CCN(c2ncccn2)C1 [Example 118, 6-(6-cyanopyrazolo[1,5-a]pyrimidin-3-yl)-N—((R)-2-fluoro-3-hydroxy-3-methylbutyl)-4-(((R)-1-(pyrimidin-2-yl)pyrrolidin-3-yl)amino)nicotinamide] | 9 | 710
CC(C)(O)[C@H]1CC[C@H](NC(=O)c2cnc(-c3cnn4cc(C#N)cnc34)cc2NC2COC2)CC1 [Example 120, 6-(6-cyanopyrazolo[1,5-a]pyrimidin-3-yl)-N-((1r,4r)-4-(2-hydroxypropan-2-yl)cyclohexyl)-4-(oxetan-3-ylamino)nicotinamide] | 9 | 800
CC(C)Nc1cc(-c2ccn(-c3ccncc3)n2)ncc1C(=O)NC[C@@H](F)C(C)(C)O [Example 156, (R)—N-(2-fluoro-3-hydroxy-3-methylbutyl)-4-(isopropylamino)-6-(1-(pyridin-4-yl)-1H-pyrazol-3-yl)nicotinamide] | 14 | 2340
CC(C)Nc1cc(-c2cnn3cc(Cl)cnc23)ncc1C(=O)NC[C@@H](F)C(C)(C)OC(F)F [Example 157, (R)-6-(6-chloropyrazolo[1,5-a]pyrimidin-3-yl)-N-(3-(difluoromethoxy)-2-fluoro-3-methylbutyl)-4-(isopropylamino)nicotinamide] | 3 | 930
CC(F)CCNc1cc(-c2cnn3cc(Cl)cnc23)ncc1C(=O)NC[C@@H](F)C(C)(C)O (stereo partly drawn) [Example 160, 6-(6-chloropyrazolo[1,5-a]pyrimidin-3-yl)-N—((R)-2-fluoro-3-hydroxy-3-methylbutyl)-4-((3-fluorobutyl)amino)nicotinamide] | 6 | 810
CO[C@H]1CC[C@H](Nc2cc(-c3cnn4cc(Cl)cnc34)ncc2C(=O)NC[C@@H](F)C(C)(C)O)CC1 [Example 165, 6-(6-chloropyrazolo[1,5-a]pyrimidin-3-yl)-N—((R)-2-fluoro-3-hydroxy-3-methylbutyl)-4-(((1r,4R)-4-methoxycyclohexyl)amino)nicotinamide] | 6 | 470
CCO[C@H]1CC[C@H](NC(=O)c2cnc(-c3cnn4cc(Cl)cnc34)cc2NC(C)C)CC1 [Example 166, 6-(6-chloropyrazolo[1,5-a]pyrimidin-3-yl)-N-((1r,4r)-4-ethoxycyclohexyl)-4-(isopropylamino)nicotinamide] | 5 | 660
CC(=O)N[C@H](C)CCNC(=O)c1cnc(-c2cnn3cc(Cl)cnc23)cc1NC(C)C [Example 167, (R)—N-(3-acetamidobutyl)-6-(6-chloropyrazolo[1,5-a]pyrimidin-3-yl)-4-(isopropylamino) nicotinamide] | 5 | 550
CC(C)Nc1cc(-c2cnn3cc(Cl)cnc23)ncc1C(=O)NCCCS(C)(=O)=O [Example 168, 6-(6-chloropyrazolo[1,5-a]pyrimidin-3-yl)-4-(isopropylamino)-N-(3-(methylsulfonyl)propyl)nicotinamide] | 16 | 760
CC(C)Nc1cc(-c2cnn3cc(C#N)cnc23)ncc1C(=O)NC[C@@H](F)C(C)(C)OC(F)F [Example 170, (R)-6-(6-cyanopyrazolo[1,5-a]pyrimidin-3-yl)-N-(3-(difluoromethoxy)-2-fluoro-3-methylbutyl)-4-(isopropylamino)nicotinamide] | 5 | 820
CC(C)Nc1cc(-c2cnc3cc(C#N)cnn23)ncc1C(=O)NCC(F)(F)C(C)(C)O [Example 173, 6-(7-cyanoimidazo[1,2-b]pyridazin-3-yl)-N-(2,2-difluoro-3-hydroxy-3-methylbutyl)-4-(isopropylamino)nicotinamide] | 6 | 830
COC(C)(C)[C@H]1CC[C@H](NC(=O)c2cnc(-c3cnc4cc(C#N)cnn34)cc2NC(C)C)CC1 [Example 174, 6-(7-cyanoimidazo[1,2-b]pyridazin-3-yl)-4-(isopropylamino)-N-((1r,4r)-4-(2-methoxypropan-2-yl)cyclohexyl)nicotinamide] | 4 | 710
CC(C)(O)[C@H](F)CNC(=O)c1cnc(-c2cnc3cc(Cl)cnn23)cc1N[C@H]1CC[C@H](C(C)(C)F)CC1 [Example 175, 6-(7-chloroimidazo[1,2-b]pyridazin-3-yl)-N—((R)-2-fluoro-3-hydroxy-3-methylbutyl)-4-(((1r,4R)-4-(2-fluoropropan-2-yl)cyclohexyl)amino)nicotinamide] | 3 | 480
CC(C)(O)[C@H](F)CNC(=O)c1cnc(-c2cnc3cc(C#N)cnn23)cc1NC1CC1 [Example 182, (R)-6-(7-cyanoimidazo[1,2-b]pyridazin-3-yl)-4-(cyclopropylamino)-N-(2-fluoro-3-hydroxy-3-methylbutyl)nicotinamide] | 2 | 620
CC(C)Nc1cc(-c2ccc3cc(C#N)cnn23)ncc1C(=O)NC[C@@H](F)C(C)(C)O [Example 193, (R)-6-(3-cyanopyrrolo[1,2-b]pyridazin-7-yl)-N-(2-fluoro-3-hydroxy-3-methylbutyl)-4-(isopropylamino)nicotinamide] | 4 | 260
CO[C@H]1CC[C@H](Nc2cc(-c3cnc4cc(C#N)cnn34)ncc2C(=O)NC[C@@H](F)C(C)(C)O)CC1 [Example 196, 6-(7-cyanoimidazo[1,2-b]pyridazin-3-yl)-N—((R)-2-fluoro-3-hydroxy-3-methylbutyl)-4-(((1r,4R)-4-methoxycyclohexyl)amino) nicotinamide] | 6 | 640
C[C@@H](CF)Nc1cc(-c2cnc3cc(C#N)cnn23)ncc1C(=O)NC[C@@H](F)C(C)(C)O [Example 200, 6-(7-cyanoimidazo[1,2-b]pyridazin-3-yl)-N—((R)-2-fluoro-3-hydroxy-3-methylbutyl)-4-(((S)-1-fluoropropan-2-yl)amino)nicotinamide] | 2 | 430
CC[C@@H](C)Nc1cc(-c2cnc3cc(Cl)cnn23)ncc1C(=O)NC[C@@H](F)C(C)(C)O [Example 202, 4-(((R)-sec-butyl)amino)-6-(7-chloroimidazo[1,2-b]pyridazin-3-yl)-N—((R)-2-fluoro-3-hydroxy-3-methylbutyl)nicotinamide] | 2 | 750
